Values joined by “and” are separate entries in the source; they are usually repeats but may differ in a detail not shown here. Equal entries are not always repeated. Where two headings read alike, the source gives them in different places. Marks after values point to notes of the source that are not given here.
Key:
Format in all cases: in vivo
Myzus persicae (aphids) = experiment: insecticidal mortality test, contact, Chinese Cabbage leaf; conditions: 72 h, read-out: grading of mortality, MP
Description: (§1) The activity of the Product was determined using a variety of insect pests. The Product was used in the form of liquid preparations containing 500, 250 or 100 parts per million (ppm) by weight of the Product. The preparations were made by dissolving the Product in acetone and diluting the solutions with water containing 0.01% by weight of a wetting agent sold under the trade name "LlSSAPOL" NX until the liquid preparations contained the required concentration of the Product. "Lissapol" is a Registered Trade Mark.
(§2) The test procedure adopted with regard to each pest was basically the same and comprised supporting a number of the pests on a medium which was usually a host plant or a foodstuff on which the pests feed, and treating either or both the pests and the medium with the preparations. The mortality of the pests was then assessed at periods usually varying from one to three days after the treatment.
(§3) The results of the tests are given in Table III for each of the Products, at the rate in parts per million given in the second column as a grading of mortality designated as A, B or C wherein A indicates 80-100% mortality, B indicates 50-79% mortality and C indicates less than 50% mortality.
(§4) In Table 111 the pest organism used is designated by a letter code and the pests species, the support medium or food, and the type and duration of test is given in Table II.

[1] = tested on: Blattella germanica (cockroach nymphs); experiment: insecticidal mortality test, residual, plastic pot; conditions: 72 h, read-out: grading of mortality, BG
Description: as §1, §2, §3, §4

[2] = tested on: Nephotettix cincticeps (green leaf hopper - nymphs); experiment: insecticidal mortality test, contact, rice plant; conditions: 100 ppm, contact, rice plant, read-out: grading of mortality, NC
Description: as §1, §2, §3, §4

[3] = tested on: Tetranychus urticae (spider mites - adult); experiment: insecticidal mortality test, contact, French bean leaf; conditions: Tetranychus urticae, 72 h; for mortality at 100 ppm: read-out: grading of mortality, Tua, 100 ppm, 3 days
Description: as §1, §2, §3, §4

[4] = tested on: Blattella germanica (adult males); experiment: Blattella germanica knockdown test; conditions: for mortality at 250 ppm / pest or weed control at 250 ppm: Blattella germanica; for mortality at 250 ppm: 48 h; for mortality at 250 ppm / % MORTALITY 48 hrs: insects held at 25°C and 65% relative humidity for 48 hours; for mortality at 250 ppm / pest or weed control at 250 ppm / % KNOCKDOWN OBSERVED 15 min / % KNOCKDOWN OBSERVED 20 min / % MORTALITY 48 hrs: tests 1 and 2 are repeats; for pest or weed control at 250 ppm: topical, Tetramethrin: mean of 27 observations; for pest or weed control at 250 ppm / % KNOCKDOWN OBSERVED 15 min / % KNOCKDOWN OBSERVED 20 min: 250 ppm in kerosene, 1 cm3 sprayed onto 10 adult males; for KT₅₀: time taken to knockdown 50% of test insects; for KT₅₀ / KT₉₀: Tetramethrin: mean of 3 assessments; for KT₉₀: time taken to knockdown 90% of test insects; for % MORTALITY 48 hrs: 2880 min
Description: The test compound was dissolved in acetone (2 cm³) and the solution diluted to a concentration of 250 ppm with kerosene. 1 cm³ Of this preparation was sprayed onto 10 Blattella germanica (adult males) held in a netted plastic pot in a Burkhard potter Tower. Assessment of knockdown was performed at intervals of 5 minutes up to a total of 20 minutes. On removal from the Burkhard Potter Tower, the insects were held at 25°C and 65% relative humidity for 48 hours, and an assessment of mortality performed. Each test was repeated.
In some tests, additional knockdown assessment was performed at intervals of 1, 2, 3 and 4 minutes, and KT₅₀ and KT₉₀ values determined (the time taken, in minutes, to knockdown 50% and 90% respectively of test insects).

[5] = tested on: Diabrotica balteata (rootworm larvae); experiment: insecticidal mortality test, residual, filter paper/maize seed; conditions: read-out: grading of mortality, DB
Description: as §1, §2, §3, §4

[6] = tested on: Musca domestica (adult females); experiment: Musca domestica knockdown test; conditions: 1 cm3 of 30 ppm solution in acetone, Kearns and March chamber, 20 adult females, observed over 10 minutes; average of 2 replicates (* single replicate, ** average of 7 tests)
Description: 1 cm³ Of a 30 ppm solution of the test chemical in acetone was sprayed into a Kearns and March chamber containing 20 Musca domestica (adult females). Knockdown was observed over a period of 10 minutes and KT₅₀ and KT₉₀ values (the time taken for 50% and 90% of the insects to be knocked down) were calculated from the observations. The results given in Table V represent average KT values of 2 replicates except where otherwise stated.

[7] = tested on: Spodoptera exigua (lesser army worm - larvae); experiment: insecticidal mortality test, residual, cotton leaf; conditions: read-out: grading of mortality, SP
Description: as §1, §2, §3, §4

[8] = tested on: Heliothis virescens (tobacco budworm - larvae); experiment: insecticidal mortality test, residual, cotton leaf; conditions: residual, cotton leaf, read-out: grading of mortality, HV
Description: as §1, §2, §3, §4

[9] = tested on: Musca domestica (houseflies - adults); experiment: insecticidal mortality test, contact, cotton wool/sugar; conditions: read-out: grading of mortality, MD
Description: as §1, §2, §3, §4

[10] = 250 ppm spray, read-out: % MORTALITY 48 hrs
[11] = 5 min, 5 min, read-out: % KNOCKDOWN OBSERVED 5 min
[12] = 48 h, test duration of 2 days (footnote +)
[13] = 10 min, 10 min, read-out: % KNOCKDOWN OBSERVED 10 min

Row | SMILES | mortality at 100 ppm (Myzus persicae (aphids)) [%] | mortality at 100 ppm [1] [%] | mortality at 100 ppm [3] [%] | mortality at 250 ppm [4, 10] [%] | pest or weed control at 250 ppm [4, 11] [%] | KT₅₀ [6] | KT₉₀ [6] | mortality at 100 ppm [2, 12] [%] | KT₅₀ ([4]; 250 ppm spray) | KT₉₀ ([4]; 250 ppm spray) | pest or weed control at 250 ppm [4, 13] [%] | mortality at 100 ppm ([5]; 48 h) [%] | mortality at 100 ppm ([7]; 48 h) [%] | mortality at 100 ppm [8, 12] [%] | mortality at 100 ppm ([9]; 72 h) [%] | % KNOCKDOWN OBSERVED 15 min [4] [%] | % KNOCKDOWN OBSERVED 20 min [4] [%] | % MORTALITY 48 hrs ([4]; 250 ppm spray) | further results
1 | CC1(C)C(C=C(Cl)C(F)(F)F)C1C(=O)OCc1c(F)c(F)c(CCl)c(F)c1F (racemic) [Product III, 4-(chloromethyl)-2,3,5,6-tetrafluorobenzyl (1RS,cis)-3-(Z-2-chloro-3,3,3-trifluoroprop-1-en-1-yl)-2,2-dimethylcyclopropanecarboxylate] | 80 to 100 | 80 to 100 | 80 to 100 | 100 | 100 | 10 min | 10 min | – | – | – | – | – | – | – | – | – | – | – | mortality at 100 ppm ([2]; 72 h, 3 days): 80 to 100%; mortality at 100 ppm ([5]; 72 h): 80 to 100%; mortality at 100 ppm ([7]; 72 h): 80 to 100%; mortality at 100 ppm ([8]; 72 h, 3 days): 80 to 100%; mortality at 100 ppm ([9]; 24 h): < 50%
2 | CC(C)=NOCc1c(F)c(F)c(COC(=O)C2C(C=C(Cl)C(F)(F)F)C2(C)C)c(F)c1F (racemic) [Product XXII, 4-[(prop-2-ylideneamino)oxymethyl]-2,3,5,6-tetrafluorobenzyl (1RS, cis)-3-(Z-2-chloro-3,3,3-trifluoroprop-1-en-1-yl-2,2-dimethylcyclopropanecarboxylate] | 80 to 100 | < 50 | 80 to 100 | 100 | – | – | – | 80 to 100 | 3.6 min and 2.5 min | 8.3 min and 4.5 min | 100 | 80 to 100 | 80 to 100 | 80 to 100 | 80 to 100 | – | – | – | –
3 | CC(C)=NOCc1c(F)c(F)c(COC(=O)[C@@H]2[C@@H](/C=C(\Cl)C(F)(F)F)C2(C)C)c(F)c1F (racemic) [Product XXIII, 4-[(prop-2-ylidenamino)oxymethyl]-2,3,5,6-tetrafluorobenzyl (1RS, trans)-3-(Z-2-chloro-3,3,3-trifluoroprop-1-en-1-yl)-2,2-dimethylcyclopropanecarboxylate] | 80 to 100 | < 50 | 80 to 100 | 100 | – | – | – | 80 to 100 | – | 9.3 min | – | 80 to 100 | 80 to 100 | < 50 | < 50 | 10 | 10 | – | –
4 | C#CCN(C)Cc1c(F)c(F)c(COC(=O)[C@@H]2[C@H](/C=C(\Cl)C(F)(F)F)C2(C)C)c(F)c1F (racemic) [Product XXIV, 4-[(N-(prop-2-yn-1-yl)-N-methyl)aminomethyl]-2,3,5-6-tetrafluorobenzyl (1RS, cis)-3-(Z-2-chloro-3,3,3-trifluoroprop-1-en-1-yl)-2,2-dimethylcyclopropanecarboxylate] | 80 to 100 | 50 to 79 | 50 to 79 | – | 60 | – | – | 80 to 100 | 4.2 min and 5.0 min | 8.8 min and 9.0 min | 100 | 80 to 100 | 80 to 100 | 80 to 100 | 80 to 100 | – | – | 100% and 70% | –
5 | C#CCSCc1c(F)c(F)c(COC(=O)[C@@H]2[C@H](/C=C(\Cl)C(F)(F)F)C2(C)C)c(F)c1F (racemic) [Product XXV, 4-[(prop-2-yn-1-yl)thiomethyl]-2,3,5,6-tetra fluorobenzyl (1RS, cis)-3-(Z-2-chloro-3,3,3-trifluoroprop-1-en-1-yl)-2,2-dimethylcyclopropanecarboxylate] | 80 to 100 | 80 to 100 | 80 to 100 | – | – | – | – | 80 to 100 | 2.5 min and 3.6 min | 4.5 min and 8.3 min | 100 | 80 to 100 | 80 to 100 | 80 to 100 | 80 to 100 | – | – | – | –
6 | CC(=O)SCc1c(F)c(F)c(COC(=O)[C@@H]2[C@H](/C=C(\Cl)C(F)(F)F)C2(C)C)c(F)c1F (racemic) [Product XXVI, 4-(acetylthiomethyl)-2,3,5,6-tetrafluorobenzyl (1RS, cis)-3-(Z-2-chloro-3,3,3-trifluoroprop-1-en-1-yl)-2,2-dimethylcyclopropanecarboxylate] | 80 to 100 | 80 to 100 | 80 to 100 | 100 | – | – | – | 80 to 100 | – | – | – | 80 to 100 | 80 to 100 | 80 to 100 | 80 to 100 | 60 | 100 | – | –
7 | CC(=O)SCc1c(F)c(F)c(COC(=O)[C@@H]2[C@@H](/C=C(\Cl)C(F)(F)F)C2(C)C)c(F)c1F (racemic) [Product XXVII, 4-(acetylthiomethyl)-2,3,5,6-tetrafluorobenzyl (1RS, trans)-3-(Z-2-chloro-3,3,3-trifluoroprop-1-en-1-yl)-2,2-dimethylcyclopropanecarboxylate] | 80 to 100 | < 50 | 80 to 100 | 100 | – | – | – | 80 to 100 | – | – | – | 80 to 100 | 80 to 100 | 80 to 100 | 80 to 100 | 40 | 40 | 80% | –
8 | CC=NNc1c(F)c(F)c(COC(=O)C2C(C=C(Cl)C(F)(F)F)C2(C)C)c(F)c1F (stereo not drawn) [Product XIV, E/Z-4-(ethylidenehydrazino)-2,3,5,6-tetrafluorobenzyl (1RS, cis)-3-(Z-2-chloro-3,3,3-trifluoroprop-1-en-1-yl)-2,2-dimethylcyclopropanecarboxylate] | – | – | – | – | – | 6.6 min | 9.4 min | – | – | – | – | – | – | – | – | 100 | – | 50% and 90% | mortality at 500 ppm (Myzus persicae (aphids)): 80 to 100%; mortality at 500 ppm [1]: 80 to 100%; mortality at 500 ppm ([3]; read-out: grading of mortality, Tua, 500 ppm, 3 days): < 50%; mortality at 500 ppm ([5]; 72 h): 80 to 100%; mortality at 500 ppm ([8]; 72 h, 500 ppm, 3 days): 80 to 100%; mortality at 500 ppm ([9]; 24 h): 80 to 100%
9 | CC(C)=CC1C(C(=O)OCN2C(=O)C3=C(CCCC3)C2=O)C1(C)C (stereo not shown) [Tetramethrin, reference compound] | – | – | – | – | 80 | 4.0** mins | 7.5** mins | – | 1.7** mins | 3.2** mins | 100 | – | – | – | – | – | – | – | mortality at 250 ppm ([4]; read-out: % MORTALITY 48 hrs, 250 ppm spray): 50%

— patent EP0302626A2, “Insecticidal compounds” (IMPERIAL CHEMICAL INDUSTRIES PLC, priority 1987, dated 1989)
